Reference: publication PMC8815882, “Screening the pandemic response box identified benzimidazole carbamates, Olorofim and ravuconazole as promising drug candidates for the treatment of eumycetoma” (PLoS Neglected Tropical Diseases, 2022)
pIC50: −log10 of the molar value. Values after ≈ are worked out from the molar mass of the structure shown. Read-outs that look alike come from different tables or passages of the source.

Legend:
M. mycetomatis MM55 = test: IC50 determination, 2-fold dilution series 16 to 0.03125 μM; format: cell-based, Madurella mycetomatis; settings: for pIC50 / IC90: Madurella mycetomatis
[1] = test system: M. mycetomatis genome strain MM55; test: CLSI M38-A2 based in vitro susceptibility screening (XTT or resazurin), growth at fixed concentration; format: cell-based, Madurella mycetomatis; settings: for activity at 25 µM / activity at 100 µM: Madurella mycetomatis
[2] = test system: F. senegalensis strain CBS132257; test: CLSI M38-A2 based in vitro susceptibility screening at 25 μM; format: cell-based, Falciformispora senegalensis; settings: selected if >75% (resazurin) or >80% (XTT) fungal growth inhibited
[3] = test system: Me. romeroi strain CBS128765; test: as above; format: cell-based, Medicopsis romeroi; settings: selected if >75% (resazurin) or >80% (XTT) fungal growth inhibited
[4] = test system: M. pseudomycetomatis strain Mex2A; test: as above; format: cell-based, Madurella pseudomycetomatis; settings: selected if >75% (resazurin) or >80% (XTT) fungal growth inhibited
[5] = test system: ten different M. mycetomatis isolates; test: MIC / MIC50 determination (XTT) in ten M. mycetomatis isolates; format: cell-based, Madurella mycetomatis; settings: Madurella mycetomatis
[6] = test system: M. tropicana strain CBS206.47; test: CLSI M38-A2 based in vitro susceptibility screening at 25 μM; format: cell-based, Madurella tropicana; settings: selected if >75% (resazurin) or >80% (XTT) fungal growth inhibited
M. mycetomatis = test: Drug static or cidal; format: cell-based, Madurella mycetomatis
Description: Supplement pntd.0010159.s001.xlsx, sheet "Pandemic Box Master sheet" | column: Drug static or cidal

[7] = MM55, Table 2, M. mycetomatis MM55, read-out: IC50
[8] = MM55, replicate 1, read-out: IC50 1
[9] = MM55, replicate 1, read-out: IC90 1
[10] = MM55, replicate 2, read-out: IC50 2
[11] = MM55, replicate 2, read-out: IC90 2
[12] = MM55, replicate 3, read-out: IC50 3
[13] = MM55, replicate 3, read-out: IC90 3
[14] = replicate A, read-out: Percentage survival at 25um, 25 um A
[15] = replicate B, read-out: Percentage survival at 25um, 25 uM B
[16] = replicate C, read-out: Percentage survival at 25um, 25 uM C
[17] = median MIC over ten M. mycetomatis isolates, no asterisk, read-out: MIC50
[18] = isolate CBS247.48, read-out: MIC CBS247.48
[19] = isolate MM55, read-out: MIC MM55
[20] = MM55, mean of replicates, read-out: IC50 mean
[21] = MM55, mean of replicates, read-out: IC90 mean
[22] = mean of replicates, read-out: Percentage survival at 25um, 25 uM mean
[23] = mean of replicates, read-out: Percentage survival at 100um, 100 uM mean
[24] = replicate 1, read-out: Percentage survival at 100um, 100 uM A
[25] = replicate 2, read-out: Percentage survival at 100um, 100 uM A
[26] = replicate 3, read-out: Percentage survival at 100um, 100 uM A
[27] = MM55, replicate 1, read-out: IC50 1 um
[28] = MM55, replicate 1, read-out: IC90 1 um
[29] = MM55, replicate 2, read-out: IC50 2 um
[30] = MM55, replicate 2, read-out: IC90 2 um
[31] = MM55, replicate 3, read-out: IC50 3 um
[32] = MM55, replicate 3, read-out: IC90 3 um
[33] = mean of three replicates, read-out: Percentage survival at 25um, 25 uM mean
[34] = first replicate column, read-out: Percentage survival at 100um, 100 uM A
[35] = mean of three replicates, read-out: Percentage survival at 100um, 100 uM mean
[36] = second replicate column, read-out: Percentage survival at 100um, 100 uM A
[37] = third replicate column, read-out: Percentage survival at 100um, 100 uM A

SMILES	pIC50 (M. mycetomatis MM55; [7])	pIC50 (M. mycetomatis MM55; [8])	IC90 (M. mycetomatis MM55; [9])	pIC50 (M. mycetomatis MM55; [10])	IC90 (M. mycetomatis MM55; [11])	pIC50 (M. mycetomatis MM55; [12])	IC90 (M. mycetomatis MM55; [13])	activity at 25 µM [1, 14]	activity at 25 µM [1, 15]	activity at 25 µM [1, 16]	MIC50 [5, 17]	MIC [5, 18]	MIC [5, 19]	MIC ([5]; isolate P1, read-out: MIC P1)	MIC ([5]; isolate So1, read-out: MIC So1)	MIC ([5]; isolate i1, read-out: MIC i1)	MIC ([5]; isolate i11, read-out: MIC i11)	pIC50 (M. mycetomatis MM55; [20])	IC90 (M. mycetomatis MM55; [21])	Drug static or cidal (M. mycetomatis)	other results
COc1cc(C)c2c(Oc3cccc(C(F)(F)F)c3)c(OC)cc(NC(C)CCCN)c2n1 (stereo not shown) [MMV000043, Tafenoquine, reference compound]	4.89	4.93	23.5 µM	4.88	23.6 µM	4.86	24.7 µM	-2.31%	0.422%	4.25%	4 µM (≈ 1.85 µg/mL)	8 µM (≈ 3.71 µg/mL)	4 µM (≈ 1.85 µg/mL)	16 µM (≈ 7.42 µg/mL)	16 µM (≈ 7.42 µg/mL)	4 µM (≈ 1.85 µg/mL)	4 µM (≈ 1.85 µg/mL)				Drug static or cidal (M. mycetomatis MM55): Cidal; pIC50 (M. mycetomatis MM55; MM55, mean, read-out: IC50 mean): 4.89; IC90 (M. mycetomatis MM55; MM55, read-out: IC90 mean): 23.9 µM; Inhibits growth of Madurella mycetomatis at 25 μM ([1]; 25 μM, selected if >75% (resazurin) or >80% (XTT) fungal growth inhibited): inhibit the growth; activity at 25 µM ([1]; mean, read-out: Percentage survival at 25um, 25 uM mean): 0.788%; activity at 100 µM ([1]; mean, read-out: Percentage survival at 100um, 100 uM mean): 22.7%; activity at 100 µM ([1]; replicate (first column), read-out: Percentage survival at 100um, 100 uM A): 53.1%; activity at 100 µM ([1]; replicate (second column), read-out: Percentage survival at 100um, 100 uM A): 6.69%; activity at 100 µM ([1]; replicate (third column), read-out: Percentage survival at 100um, 100 uM A): 8.3%; Inhibits growth of Falciformispora senegalensis at 25 μM [2]: inhibit the growth; Inhibits growth of Medicopsis romeroi at 25 μM [3]: inhibit the growth; Inhibits growth of Madurella pseudomycetomatis at 25 μM [4]: inhibit the growth; MIC50 ([5]; over the isolates tested, read-out: MIC50 mean): 4 µM (≈ 1.85 µg/mL); Inhibits growth of Madurella tropicana at 25 μM [6]: inhibit the growth
CCN(CC)CCn1c(=N)n(CC(O)COc2ccc(Cl)cc2Cl)c2ccccc21 (stereo not shown) [MMV000725]	5.09	5.55	13.2 µM	5.02	21.1 µM	4.91	21.8 µM	3.92%	1.56%	2.57%	16 µM (≈ 7.22 µg/mL)	> 16 µM	> 16 µM	> 16 µM	16 µM (≈ 7.22 µg/mL)	16 µM (≈ 7.22 µg/mL)	> 16 µM	5.09	18.7 µM	Cidal	activity at 25 µM [1, 22]: 2.68%; activity at 100 µM [1, 23]: 4.47%; activity at 100 µM [1, 24]: 4.59%; activity at 100 µM [1, 25]: 3.57%; activity at 100 µM [1, 26]: 5.25%; MIC50 ([5]; ten isolates, read-out: MIC50 mean): < 16 µM; MIC ([5]; isolate MM14, read-out: MIC MM14): > 16 µM; MIC ([5]; isolate MM45, read-out: MIC MM45): > 16 µM; MIC ([5]; isolate ParijsAl1, read-out: MIC ParijsAl1): > 16 µM; MIC ([5]; isolate Peru72012, read-out: MIC Peru72012): > 16 µM
Clc1ccc(Cn2c(CN3CCCC3)nc3ccccc32)cc1 [MMV002015]								9.47%	-1.23%	11.8%								< 4.60	> 25 µM	Cidal	pIC50 (M. mycetomatis MM55; [27]): < 4.60; IC90 (M. mycetomatis MM55; [28]): > 25 µM; pIC50 (M. mycetomatis MM55; [29]): < 4.60; IC90 (M. mycetomatis MM55; [30]): > 25 µM; pIC50 (M. mycetomatis MM55; [31]): < 4.60; IC90 (M. mycetomatis MM55; [32]): > 25 µM; activity at 25 µM [1, 33]: 6.67%; activity at 100 µM [1, 34]: 3.95%; activity at 100 µM [1, 35]: 4.96%; activity at 100 µM [1, 36]: 6.49%; activity at 100 µM [1, 37]: 4.45%
Cc1ccc(S(=O)(=O)Nc2cccc3cccnc23)cc1 [MMV233495]		4.73	> 25 µM	< 4.60	> 25 µM	< 4.60	> 25 µM	5.12%	-0.547%	46.8%								< 4.60	> 25 µM	Static	activity at 25 µM [1, 22]: 17.1%; activity at 100 µM [1, 23]: 31.3%; activity at 100 µM [1, 24]: -0.389%; activity at 100 µM [1, 25]: 38.9%; activity at 100 µM [1, 26]: 55.5%
Oc1cccc(C(Nc2nccs2)c2ccc3cccnc3c2O)c1 (stereo not shown) [MMV642550]								-5.33%	6.92%	2.03%								< 4.60	> 25 µM	Cidal	pIC50 (M. mycetomatis MM55; [27]): < 4.60; IC90 (M. mycetomatis MM55; [28]): > 25 µM; pIC50 (M. mycetomatis MM55; [29]): < 4.60; IC90 (M. mycetomatis MM55; [30]): > 25 µM; pIC50 (M. mycetomatis MM55; [31]): < 4.60; IC90 (M. mycetomatis MM55; [32]): > 25 µM; activity at 25 µM [1, 33]: 1.21%; activity at 100 µM [1, 34]: 4.63%; activity at 100 µM [1, 35]: 8.03%; activity at 100 µM [1, 36]: 8.66%; activity at 100 µM [1, 37]: 10.8%
